# From patent publication US6818446B2, “Compositions and methods for the analysis of mucin gene expression and identification of drugs having the ability to inhibit mucin gene expression” (The Regents of the University of California, priority 2001, dated 2004)
# “Also recorded” adds a separate entry of the source.
# Tests used:
# MUC5B-b2 promoter = test: Effect of culture conditions and retinoic acid on MUC5B-b2 promoter-reporter activity in primary human TBE cells; format: cell-based; settings: retinoic acid 30 nM
# Procedure: For studying the effects of culture conditions on the promoter-reporter gene activity, primary human TBE cultures were grown in 60 mm dishes and transfected with 1 μg of MUC5B promoter-luciferase construct DNA and 0.5 μg pSV-β-gal expression vector. One day following the transfection, cultures were passaged into either 35 mm tissue culture dishes or into collagen gel-coated 25 mm Transwell™ chambers (Coming-COSTAR Catalog Number 3506). Additionally, the cultures were maintained either in the absence or presence of supplemental all-trans-retinoic acid (30 nM). For Transwell™ cultures, chambers were maintained in an air-liquid interface for an additional three days. Cell extracts were prepared and luciferase and β-galactosidase activities were analyzed as described above. For each transfection, relative luciferase activity was expressed after normalization for β-galactosidase activity. The results are presented as a mean of relative activities from at least triplicate dishes, and data is collected from at least three independent experiments. Activity is expressed as units of luciferase activity per unit of β-gal activity (units/beta-gal). […] Results are expressed as “fold increase” of luciferase activity, comparing RA-treated and RA-untreated cultures, where the activity of the RA untreated culture is set to 1. […]
# MUC5B message = test: Northern blot analysis of MUC5B message in primary TBE cell cultures; settings: primary human TBE cells, presence vs absence of 30 nM retinoic acid
# MUC5B promoter [1] = test: MUC5B-b2 luciferase reporter activity in primary TBE cultures derived from transgenic mice; format: cell-based; settings: transgenic mouse TBE cells; cytokine 10 ng/ml, 7 days
# Procedure: The transgenic mice described in EXAMPLE 9 were used to isolate TBE cells, which were maintained in culture. The TBE cells were maintained in three culture conditions, which were control (no supplement), with interleukin-6 (IL-6) at a concentration of 10 ng/ml or with IL-17 at a concentration of 10 ng/ml. The cells were maintained in the presence of the cytokines for 7 days, harvested and cell extracts were prepared as described in EXAMPLE 8. The luciferase activity in each cell extract was determined, and normalized for total protein concentration of the extract samples.
# MUC5B promoter [2] = test: Luciferase activity in stably transfected HBE1 cells carrying the MUC5B promoter reporter; format: cell-based, human; settings: cytokine 10 ng/ml
# Procedure: Experimental—The established cell line HBE1 was cultured in 35 mm dishes and grown to 60-80% confluence. These cells were cotransfected with either MUC-5B reporter construct and a second plasmid encoding the neomycin-resistance (neo) selectable marker. The chimeric reporter plasmids used in the transfections were purified using QIAGEN® plasmid isolation kits, and the cotransfections were done using Roche FuGENE 6™ transfection reagent (Roche Molecular Biochemicals, Indianapolis, Ind.) according to the manufacturer's instructions. In these transfections, 2.5 μg of MUC5B reporter plasmid DNA and 0.5 μg of the neomycin resistance marker plasmid per 35 mm culture dish were used for each transfection.
# Following the cotransfection, cells were cultured for an additional 48 to 72 hours. At this time, the medium was replaced with fresh medium containing the neomycin analogue G-418 at a concentration of 100 μg/ml. The selection was maintained for approximately 21 days, at which time clones of resistant transfected cells were replated and maintained as continuous lines. Cell extracts were prepared and luciferase activity quantitated exactly as described in EXAMPLE 8, with the exception that cell extracts were normalized for total protein content, and not β-galactosidase activity. In addition, these cells were cultured in the absence or presence of IL-6 (10 ng/ml) or IL-17 (10 ng/ml).
Compound,"MUC5B-b2 reporter gene activity, RA-treated vs RA-untreated, tissue culture dishes (TC) (MUC5B-b2 promoter; TC)","MUC5B-b2 reporter gene activity, fold increase RA-treated vs RA-untreated, BICG conditions (MUC5B-b2 promoter; collagen gel-coated Transwell chambers, air-liquid interface)",levels of MUC5B message in BI and BICG cultures (MUC5B message; Transwell chambers (BI) or collagen gel-coated Transwell chambers (BICG)),levels of MUC5B message in TC and CG cultures (MUC5B message; tissue culture dishes (TC) or collagen gel coated dishes (CG)),MUC5B promoter activity (luciferase normalized for total protein) vs control without interleukin (MUC5B promoter [1]),luciferase reporter activity in presence vs absence of cytokine (MUC5B promoter [2])
"CC1=C(/C=C/C(C)=C/C=C/C(C)=C/C(=O)O)C(C)(C)CCC1 [retinoic acid, all-trans-retinoic acid]",not affected,five-fold,greatly enhanced,unaffected,,
IL-6: pro-inflammatory cytokine interleukin-6 added to cell cultures,,,,,significant upregulation,strongly induced; also recorded: upregulated
IL-17: pro-inflammatory cytokine IL-17 added to cell cultures,,,,,significant upregulation,strongly induced; also recorded: upregulated
